The values that follow come from patent US20120214784A1, “SPIROPIPERIDINE COMPOUNDS AS ORL-1 RECEPTOR ANTAGONISTS” (ELI LILLY AND COMPANY, priority 2009, published 2012).

Each structure is given as a SMILES string.

Experiment [1] has as its target T1, cloned human ORL1 receptors (Homo sapiens, UniProt P41146).
T1 construct: expressed in transfected cells; host or cells: CHO cells (membranes)
The experiment is described as follows: [3H]-OFQ/nociceptin receptor binding assay. As to the method:
Radioligand binding assays are commonly used to determine the affinity (Ki) or potency of a compound to bind to a particular receptor or target protein. A filtration-based [3H]-OFQ/nociceptin receptor binding assay is developed based on previous assay formats (Ardati A, Henningsen R A, Higelin J, Reinscheid R K, Civelli O, Monsma F J Jr. Mol. Pharmacol. 1997 May; 51(5):816-24.) with minor modifications. [3H]-OFQ/nociceptin binding assays are carried out in deep-well 96-well plates. [^3H]OFQ (final assay concentration 0.2 nM) competition studies are carried out with 5-10 μg of membrane protein (isolated from Chinese hamster ovary cells (CHO cells) expressing cloned human ORL1 receptors) in a final assay volume of 0.5 mL of buffer containing 20 mM HEPES, pH 7.4, 5 mM MgCl2, 1 mM EGTA, 100 mM NaCl, 0.1% bovine serum albumin. Samples are incubated for 60 min. at room temperature, which is found to be optimal for competition assays. The assays are terminated by filtration through glass fiber filters (Wallac filtermat A) [pretreated with 0.3% polyethylenimine (Sigma) for 1 hr] on a Tometc cell harvester, and the filters are washed three times with 5 mL of ice-cold 50 mM Tris.HCl, pH 7.4. Filtermats are then dried and imbedded with Meltilex scintillant A and the radioactivity counted in a Wallac Microbeta scintillation counter. Specific binding is determined by displacement with 100 nM unlabeled nociceptin. Curves are plotted as the percent of specific binding and IC50 values are determined using a sigmoidal dose response curve with variable slope. K, values are calculated from the IC50 by the equation of Cheng and Prusoff (Cheng, Y. C., and Prusoff, W. H., Biochem. Pharmacol. 22, 3099-3108 (1973)) where Ki=IC50×(1+D×Kd^−1)^−1. Similarly, Ki for the mu, kappa and delta opioids, serotonin, adrenergic, and muscarinic receptors may be determined using membranes expressing the desired receptor and appropriate corresponding radioligand competitor molecules.

The target in another experiment is Adenosine A3 (Homo sapiens, UniProt P0DMS8). As to the kind of experiment: Radioligand binding selectivity.
Experiment [2] deals with T2, cloned human ORL1/nociceptin receptors (Homo sapiens, UniProt P41146).
T2 construct: expressed in transfected cells
As to the kind of experiment: Functional blockade of agonist-mediated G-protein activation, GTP-γ-[35S] binding. The format is biochemical. The source says: Agonist-mediated stimulation of G-protein coupled receptors results in the activation of membrane associated Gαβγ-protein heterotrimer complexes, and represents the first step in the transduction of extracellular signals to modification of intracellular pathways. The first step in activation of receptor-mediated activation of Gαβγ-proteins heterotrimer is the exchange of Gα subunit bound guanosine diphoshpate (GDP) for guanosine triphosphate (GTP). The binding of GTP to the Gα subunit causes dissociation of the heterotrimer subunits, Gβ and Gγ, resulting in the modulation of several intracellular signaling cascades. Measurement of receptor-mediated G-protein activation can be measured using the non-hydrolyzable radiolabeled analog of GTP, GTP-γ-[35S]. Utilizing this methodology, antagonist affinity (Kb) is measured in membranes expressing cloned human ORL1/nociceptin receptors using a GTP-γ-[35S] binding assay according to previously described protocols with minor modifications (DeLapp et al., J Pharmacol Exp Ther. 1999 May; 289(2):946-55; Ozaki et al., Eur J Pharmacol. 2000 Aug. 18; 402(1-2):45-53). Assays are conducted in a 200-μl volume with the following buffer composition: 100 mM NaCl, 20 mM HEPES, 5 mM MgCl2, 1 mM EDTA, 0.1% BSA, 3 μM GDP, 0.5 nM [^35S]GTPγS. ORL1 receptor membrane suspension is added at a concentration of 20 μg protein per well and receptor stimulation is achieved using 300 nM nociceptin/OFQ. Wheat germ agglutinin coated SPA beads (Amersham, Arlington Hts., Ill.) are added at 1 mg per well to detect membrane-bound [^35S]GTPγS. Plates are sealed and incubated for 2 hr. at room temperature. Plates are then placed at 4° C. overnight to allow the SPA beads to settle and then counted in a Wallac Microbeta. Specific [^35S]GTPγS binding is determined as the difference in CPM observed in the absence and presence of 10 μM unlabeled GTPγS. Data are plotted as the percent of specific [^35S]GTPγS bound. Curves are plotted as the percent of specific binding and IC50 values are determined using a sigmoidal dose response curve with variable slope. Antagonist affinity (Kb) is estimated according to DeLapp et al., 1999 using a modification of the equation of Cheng and Prusoff (1973) where Kb=IC50×(1+D×EC50^−1)^−1.

Experiment [3] deals with T3, nociceptin/ORL1 receptors (Rattus norvegicus, UniProt P35370).
T3 construct: rats are sacrificed by cervical dislocation and the hypothalamus is removed; from tissue; host or cells: rat hypothalamus (in vivo occupancy)
The experiment is described as follows: In vivo receptor occupancy (LC/MS/MS, RO Tracer) in hypothalamus. The following applies: oral 3 mg/kg dose after 6 hr.

In experiment [4] the target is human ERG (hERG) K+ channel (Homo sapiens, UniProt Q12809). As to the kind of experiment: hERG channel [3H]astemizole binding assay. The following applies: HEK293 cells expressing cloned hERG, [3H]astemizole 2 nM; read-out: Ki for hERG K+ channel. How it is done:
Blockade of K^+-channel conductance in the heart is associated with cardiotoxicity in the form of QT-wave prolongation. The affinity (Ki) of the exemplified nociceptin receptor antagonists for the human ERG (hERG) K^+ channel is determined in HEK293 cells expressing cloned hERG using the hERG channel antagonist radioligand [3H]astemizole (2 nM final assay concentration) according to well known procedures (see for example Finlayson K, et al. (Eur J Pharmacol. 412(3):203-12, 2001) [3H]Astemizole binding assays are performed at the contract research company Cerep (Paris France) according to standard procedures.

T3 sequence (P35370 whole entry): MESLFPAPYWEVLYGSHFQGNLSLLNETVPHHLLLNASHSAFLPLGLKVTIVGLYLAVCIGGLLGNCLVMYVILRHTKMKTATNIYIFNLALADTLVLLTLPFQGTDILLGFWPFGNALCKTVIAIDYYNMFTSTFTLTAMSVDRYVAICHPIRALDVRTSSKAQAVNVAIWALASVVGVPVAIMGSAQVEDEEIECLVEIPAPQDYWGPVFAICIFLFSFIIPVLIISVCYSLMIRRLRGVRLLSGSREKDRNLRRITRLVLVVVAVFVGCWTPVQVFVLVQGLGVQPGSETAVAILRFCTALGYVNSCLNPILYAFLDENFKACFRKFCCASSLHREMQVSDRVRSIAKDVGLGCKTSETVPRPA
human ERG (hERG) K+ channel, sequence (Q12809 whole entry): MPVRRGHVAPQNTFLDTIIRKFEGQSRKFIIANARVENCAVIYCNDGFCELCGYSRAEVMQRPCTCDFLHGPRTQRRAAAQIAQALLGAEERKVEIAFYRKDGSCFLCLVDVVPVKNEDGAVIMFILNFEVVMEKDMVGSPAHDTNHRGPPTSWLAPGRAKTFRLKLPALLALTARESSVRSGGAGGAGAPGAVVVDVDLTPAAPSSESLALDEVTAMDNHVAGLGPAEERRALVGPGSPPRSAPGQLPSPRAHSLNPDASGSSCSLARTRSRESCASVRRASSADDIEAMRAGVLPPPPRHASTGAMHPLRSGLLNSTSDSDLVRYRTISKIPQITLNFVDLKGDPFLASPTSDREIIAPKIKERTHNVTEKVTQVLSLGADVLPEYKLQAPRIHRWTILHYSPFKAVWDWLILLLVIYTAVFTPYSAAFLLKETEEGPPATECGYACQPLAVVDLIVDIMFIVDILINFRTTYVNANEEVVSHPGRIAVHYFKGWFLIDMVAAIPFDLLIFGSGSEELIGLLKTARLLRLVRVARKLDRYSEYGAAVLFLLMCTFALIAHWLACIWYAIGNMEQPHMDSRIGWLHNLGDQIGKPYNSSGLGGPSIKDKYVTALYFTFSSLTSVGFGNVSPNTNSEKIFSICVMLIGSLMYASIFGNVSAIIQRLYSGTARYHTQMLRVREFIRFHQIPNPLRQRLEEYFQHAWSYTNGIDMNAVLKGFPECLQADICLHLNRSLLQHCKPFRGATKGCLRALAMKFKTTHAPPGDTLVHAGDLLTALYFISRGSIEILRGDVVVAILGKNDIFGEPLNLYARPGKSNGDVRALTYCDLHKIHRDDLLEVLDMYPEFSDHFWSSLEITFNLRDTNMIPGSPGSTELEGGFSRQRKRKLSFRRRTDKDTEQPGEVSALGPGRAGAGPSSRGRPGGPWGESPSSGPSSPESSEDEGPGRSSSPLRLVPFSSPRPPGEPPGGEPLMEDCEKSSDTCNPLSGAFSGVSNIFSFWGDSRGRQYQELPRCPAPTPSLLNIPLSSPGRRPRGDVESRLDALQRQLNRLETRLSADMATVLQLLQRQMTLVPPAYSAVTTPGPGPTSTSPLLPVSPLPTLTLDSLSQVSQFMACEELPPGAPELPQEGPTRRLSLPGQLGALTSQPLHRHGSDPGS
Adenosine A3, sequence (P0DMS8 whole entry): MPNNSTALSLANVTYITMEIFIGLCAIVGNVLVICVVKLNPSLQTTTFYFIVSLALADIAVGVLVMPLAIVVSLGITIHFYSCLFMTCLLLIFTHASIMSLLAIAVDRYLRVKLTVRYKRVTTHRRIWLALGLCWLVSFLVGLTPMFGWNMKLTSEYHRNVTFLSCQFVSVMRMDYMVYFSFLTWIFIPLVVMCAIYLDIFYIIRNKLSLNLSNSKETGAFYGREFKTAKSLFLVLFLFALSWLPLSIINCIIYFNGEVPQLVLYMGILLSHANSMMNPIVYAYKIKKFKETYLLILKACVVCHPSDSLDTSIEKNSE
T2 sequence (P41146 whole entry): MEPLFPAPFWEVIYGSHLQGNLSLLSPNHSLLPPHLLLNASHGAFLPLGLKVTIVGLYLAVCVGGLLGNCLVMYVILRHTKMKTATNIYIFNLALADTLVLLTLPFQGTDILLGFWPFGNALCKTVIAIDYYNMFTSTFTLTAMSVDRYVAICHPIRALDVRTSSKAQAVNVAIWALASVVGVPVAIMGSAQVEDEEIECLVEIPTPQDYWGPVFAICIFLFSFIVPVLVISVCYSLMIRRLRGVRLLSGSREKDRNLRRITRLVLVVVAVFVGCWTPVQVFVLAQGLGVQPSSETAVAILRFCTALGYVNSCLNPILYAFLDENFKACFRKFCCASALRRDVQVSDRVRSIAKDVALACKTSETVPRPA
T1 sequence (P41146 whole entry): as above

One may read the Ki as the dissociation constant of the complex between target and ligand, obtained from inhibition or displacement. In the case of `Cc1nn(-c2c(F)cccc2F)cc1CN1CCC2(CC1)OCC(F)(F)c1cc(Cl)sc12.O=C(O)C(O)C(O)C(=O)O` [Example 2, 2-Chloro-1′-[[1-(2,6-difluorophenyl)-3-methyl-pyrazol-4-yl]methyl]-4,4-difluoro-spiro[5H-thieno[2,3-c]pyran-7,4′-piperidine] (L)-Tartrate], the figures for the inhibition constant (Ki) (in experiment [1]; on Adenosine A3; in experiment [4]) were 0.17 nM, 2300 nM and 2890 nM, respectively. Besides, in experiment [2], the Kb came out at 0.43 nM. Moreover, the receptor occupancy at 3 mg/kg in experiment [3] is 76%.
